Source: article PMC3961306, “Comparison of the Cancer Gene Targeting and Biochemical Selectivities of All Targeted Kinase Inhibitors Approved for Clinical Use” (PLoS ONE, 2014)

Tests used:
Experiment in all cases: Kinase profiling in a biochemical assay panel (mobility shift assays and ELISA), %-inhibition at 1 μM; selectivity entropy
[1] = molecular target: panel of more than 300 wild-type and mutant kinases (313 kinase panel) (Homo sapiens, UniProt Q13554)
[2] = molecular target: panel of more than 300 wild-type and mutant kinases (313 kinase panel) (Homo sapiens, UniProt P53350); settings: kinase PLK1; 1 μM
[3] = molecular target: panel of more than 300 wild-type and mutant kinases (313 kinase panel) (Homo sapiens, UniProt P42336); settings: kinase PIK3CA/PIK3R1; 1 μM
[4] = molecular target: panel of more than 300 wild-type and mutant kinases (313 kinase panel) (Homo sapiens, UniProt P49761)
[5] = molecular target: T1, panel of more than 300 wild-type and mutant kinases (313 kinase panel) (Homo sapiens, UniProt Q12866)
T1 sequence (Q12866 21-999): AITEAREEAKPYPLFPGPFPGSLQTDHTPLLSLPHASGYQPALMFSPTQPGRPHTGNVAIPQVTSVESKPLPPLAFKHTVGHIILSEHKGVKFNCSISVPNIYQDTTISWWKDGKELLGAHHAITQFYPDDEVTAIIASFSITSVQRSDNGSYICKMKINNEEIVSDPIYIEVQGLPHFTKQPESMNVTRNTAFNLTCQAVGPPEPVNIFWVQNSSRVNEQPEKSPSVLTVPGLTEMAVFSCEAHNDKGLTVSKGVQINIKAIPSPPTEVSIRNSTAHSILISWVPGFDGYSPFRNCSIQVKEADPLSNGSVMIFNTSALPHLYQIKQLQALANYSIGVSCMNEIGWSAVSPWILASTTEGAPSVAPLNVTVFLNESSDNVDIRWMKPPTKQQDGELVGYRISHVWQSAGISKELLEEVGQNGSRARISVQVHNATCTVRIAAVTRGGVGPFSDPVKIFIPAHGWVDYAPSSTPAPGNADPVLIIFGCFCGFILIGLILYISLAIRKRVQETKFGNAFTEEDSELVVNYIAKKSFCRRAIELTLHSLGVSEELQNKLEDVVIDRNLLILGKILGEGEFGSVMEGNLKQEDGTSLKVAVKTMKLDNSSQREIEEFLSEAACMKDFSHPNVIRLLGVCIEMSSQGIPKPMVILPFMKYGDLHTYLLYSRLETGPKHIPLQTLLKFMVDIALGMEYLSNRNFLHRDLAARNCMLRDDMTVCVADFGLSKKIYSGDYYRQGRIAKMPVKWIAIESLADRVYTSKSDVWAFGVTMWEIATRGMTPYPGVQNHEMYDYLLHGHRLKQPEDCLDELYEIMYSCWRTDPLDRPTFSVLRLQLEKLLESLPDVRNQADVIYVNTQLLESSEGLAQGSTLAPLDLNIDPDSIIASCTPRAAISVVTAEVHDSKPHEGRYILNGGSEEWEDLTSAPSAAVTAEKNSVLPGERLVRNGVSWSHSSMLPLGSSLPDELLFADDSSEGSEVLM

[6] = molecular target: panel of more than 300 wild-type and mutant kinases (313 kinase panel) (Homo sapiens, UniProt Q00526)
[7] = molecular target: panel of more than 300 wild-type and mutant kinases (313 kinase panel) (Homo sapiens, UniProt Q13177); settings: kinase PAK2; 1 μM
[8] = molecular target: panel of more than 300 wild-type and mutant kinases (313 kinase panel) (Homo sapiens, UniProt Q9H422); settings: kinase HIPK3; compound at 1 μM
[9] = molecular target: panel of more than 300 wild-type and mutant kinases (313 kinase panel) (Homo sapiens, UniProt P22607, K650M); settings: kinase FGFR3(K650M); compound at 1 μM
[10] = molecular target: panel of more than 300 wild-type and mutant kinases (313 kinase panel) (Homo sapiens, UniProt P36507)
[11] = molecular target: panel of more than 300 wild-type and mutant kinases (313 kinase panel) (Homo sapiens, UniProt P06239); settings: kinase LCK; compound at 1 μM
[12] = molecular target: panel of more than 300 wild-type and mutant kinases (313 kinase panel) (Homo sapiens, UniProt Q9HC98)
[13] = molecular target: panel of more than 300 wild-type and mutant kinases (313 kinase panel) (Homo sapiens, UniProt Q8N568)
[14] = molecular target: panel of more than 300 wild-type and mutant kinases (313 kinase panel) (Homo sapiens, UniProt P22455, V550L); settings: kinase FGFR4(V550L); compound at 1 μM
[15] = molecular target: panel of more than 300 wild-type and mutant kinases (313 kinase panel) (Homo sapiens, UniProt P07332); settings: kinase FES; compound at 1 μM
[16] = kinase CDK3/CycE1, 1 μM compound
[17] = kinase MAP2K2, compound at 1 μM
[18] = kinase DCAMKL2, compound at 1 μM

panel of more than 300 wild-type and mutant kinases (313 kinase panel) (Homo sapiens, UniProt Q00526), sequence (Q00526 whole entry, change not shown): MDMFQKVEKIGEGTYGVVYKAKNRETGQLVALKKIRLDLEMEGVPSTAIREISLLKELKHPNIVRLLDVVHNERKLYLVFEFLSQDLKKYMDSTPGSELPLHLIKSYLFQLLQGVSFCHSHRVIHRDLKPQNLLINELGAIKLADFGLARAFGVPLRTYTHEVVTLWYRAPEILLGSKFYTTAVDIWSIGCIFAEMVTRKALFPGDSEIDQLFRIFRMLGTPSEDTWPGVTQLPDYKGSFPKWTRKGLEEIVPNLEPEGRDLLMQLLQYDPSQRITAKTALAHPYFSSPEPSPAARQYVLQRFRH
panel of more than 300 wild-type and mutant kinases (313 kinase panel) (Homo sapiens, UniProt P22455, V550L), sequence (P22455 22-802 V550L): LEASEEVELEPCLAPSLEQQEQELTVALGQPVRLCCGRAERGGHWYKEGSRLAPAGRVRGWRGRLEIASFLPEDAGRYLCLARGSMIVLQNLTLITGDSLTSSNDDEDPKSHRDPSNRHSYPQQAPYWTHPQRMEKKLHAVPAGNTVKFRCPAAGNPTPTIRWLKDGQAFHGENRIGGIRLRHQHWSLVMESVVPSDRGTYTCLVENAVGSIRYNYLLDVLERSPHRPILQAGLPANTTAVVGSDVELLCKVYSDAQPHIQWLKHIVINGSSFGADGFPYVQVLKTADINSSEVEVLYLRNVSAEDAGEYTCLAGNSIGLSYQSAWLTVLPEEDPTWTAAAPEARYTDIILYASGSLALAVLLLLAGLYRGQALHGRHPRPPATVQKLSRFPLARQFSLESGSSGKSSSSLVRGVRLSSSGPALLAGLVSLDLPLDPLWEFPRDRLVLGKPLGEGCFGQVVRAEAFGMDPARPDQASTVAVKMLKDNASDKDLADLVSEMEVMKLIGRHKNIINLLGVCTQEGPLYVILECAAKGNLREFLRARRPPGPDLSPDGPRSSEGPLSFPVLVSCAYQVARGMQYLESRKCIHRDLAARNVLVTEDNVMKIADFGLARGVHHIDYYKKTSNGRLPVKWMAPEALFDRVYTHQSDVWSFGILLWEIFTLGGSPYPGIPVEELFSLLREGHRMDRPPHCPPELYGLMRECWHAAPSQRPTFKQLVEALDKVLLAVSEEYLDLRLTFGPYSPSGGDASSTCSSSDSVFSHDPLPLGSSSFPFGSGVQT
panel of more than 300 wild-type and mutant kinases (313 kinase panel) (Homo sapiens, UniProt P06239), sequence (P06239 whole entry, change not shown): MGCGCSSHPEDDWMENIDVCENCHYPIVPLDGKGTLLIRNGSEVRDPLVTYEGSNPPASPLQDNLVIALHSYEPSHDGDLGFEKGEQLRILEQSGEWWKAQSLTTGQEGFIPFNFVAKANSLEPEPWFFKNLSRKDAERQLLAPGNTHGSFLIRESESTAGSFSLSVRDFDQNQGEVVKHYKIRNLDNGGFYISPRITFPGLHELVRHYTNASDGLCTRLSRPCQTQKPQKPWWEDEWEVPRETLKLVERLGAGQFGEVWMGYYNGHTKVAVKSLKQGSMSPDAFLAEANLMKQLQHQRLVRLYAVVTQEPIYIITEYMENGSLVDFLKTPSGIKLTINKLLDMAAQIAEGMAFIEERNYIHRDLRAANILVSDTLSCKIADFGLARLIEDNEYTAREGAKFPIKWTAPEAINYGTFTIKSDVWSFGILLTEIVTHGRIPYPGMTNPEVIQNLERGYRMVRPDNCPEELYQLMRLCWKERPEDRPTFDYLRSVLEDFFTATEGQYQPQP
panel of more than 300 wild-type and mutant kinases (313 kinase panel) (Homo sapiens, UniProt P49761), sequence (P49761 whole entry, change not shown): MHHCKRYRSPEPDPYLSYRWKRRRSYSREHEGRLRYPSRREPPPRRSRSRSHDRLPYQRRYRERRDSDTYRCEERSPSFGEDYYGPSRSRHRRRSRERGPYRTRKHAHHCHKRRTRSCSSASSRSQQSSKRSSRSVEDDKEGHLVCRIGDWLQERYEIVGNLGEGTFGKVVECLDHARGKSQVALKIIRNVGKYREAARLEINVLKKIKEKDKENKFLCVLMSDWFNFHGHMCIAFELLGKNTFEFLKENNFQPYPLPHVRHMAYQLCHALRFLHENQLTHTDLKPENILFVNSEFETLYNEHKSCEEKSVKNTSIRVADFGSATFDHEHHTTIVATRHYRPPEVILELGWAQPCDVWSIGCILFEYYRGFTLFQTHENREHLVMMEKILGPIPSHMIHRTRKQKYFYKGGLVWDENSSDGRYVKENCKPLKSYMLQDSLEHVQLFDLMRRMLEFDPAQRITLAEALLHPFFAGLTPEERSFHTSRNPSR
panel of more than 300 wild-type and mutant kinases (313 kinase panel) (Homo sapiens, UniProt P22607, K650M), sequence (P22607 23-806 K650M): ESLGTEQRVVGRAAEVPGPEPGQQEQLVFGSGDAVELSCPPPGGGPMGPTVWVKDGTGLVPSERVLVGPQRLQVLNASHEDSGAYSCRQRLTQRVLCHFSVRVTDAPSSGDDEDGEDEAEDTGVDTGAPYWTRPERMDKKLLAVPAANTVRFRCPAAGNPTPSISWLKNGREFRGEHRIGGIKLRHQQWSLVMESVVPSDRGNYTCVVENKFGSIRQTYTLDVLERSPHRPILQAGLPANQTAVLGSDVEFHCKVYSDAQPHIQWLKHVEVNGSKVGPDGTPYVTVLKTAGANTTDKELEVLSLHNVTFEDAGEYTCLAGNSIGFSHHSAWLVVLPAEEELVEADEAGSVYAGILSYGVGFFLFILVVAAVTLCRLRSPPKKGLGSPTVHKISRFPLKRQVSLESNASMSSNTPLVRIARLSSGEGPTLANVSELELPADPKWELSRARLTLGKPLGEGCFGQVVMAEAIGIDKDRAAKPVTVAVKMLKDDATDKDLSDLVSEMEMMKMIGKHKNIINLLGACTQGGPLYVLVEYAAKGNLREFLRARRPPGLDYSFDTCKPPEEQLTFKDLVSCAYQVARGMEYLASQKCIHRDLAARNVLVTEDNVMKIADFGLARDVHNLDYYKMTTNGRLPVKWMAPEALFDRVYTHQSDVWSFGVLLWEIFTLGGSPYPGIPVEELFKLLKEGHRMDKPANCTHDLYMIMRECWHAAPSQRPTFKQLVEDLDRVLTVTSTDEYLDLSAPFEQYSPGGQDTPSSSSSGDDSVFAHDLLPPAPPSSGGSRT
panel of more than 300 wild-type and mutant kinases (313 kinase panel) (Homo sapiens, UniProt Q13554), sequence (Q13554 whole entry, change not shown): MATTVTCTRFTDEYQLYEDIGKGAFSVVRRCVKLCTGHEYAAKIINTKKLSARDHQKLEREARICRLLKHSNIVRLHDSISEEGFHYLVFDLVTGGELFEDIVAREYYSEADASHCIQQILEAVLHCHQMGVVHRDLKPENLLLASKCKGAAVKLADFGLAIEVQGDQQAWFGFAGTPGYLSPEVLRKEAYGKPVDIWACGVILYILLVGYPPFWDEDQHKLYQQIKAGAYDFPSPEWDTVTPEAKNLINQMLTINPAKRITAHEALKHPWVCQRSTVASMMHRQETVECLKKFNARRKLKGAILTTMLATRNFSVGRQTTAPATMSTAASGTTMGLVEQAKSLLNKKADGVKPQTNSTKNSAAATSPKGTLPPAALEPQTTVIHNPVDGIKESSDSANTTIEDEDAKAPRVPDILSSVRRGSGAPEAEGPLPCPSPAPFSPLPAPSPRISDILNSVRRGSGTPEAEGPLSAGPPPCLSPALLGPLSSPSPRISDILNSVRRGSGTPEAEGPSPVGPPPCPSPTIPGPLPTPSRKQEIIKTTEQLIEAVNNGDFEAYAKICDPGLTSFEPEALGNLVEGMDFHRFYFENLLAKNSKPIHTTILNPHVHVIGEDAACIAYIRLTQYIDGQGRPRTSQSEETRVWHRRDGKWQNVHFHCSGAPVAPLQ

Row | Compound | %-inhibition, CaMK2β ([1]; kinase CaMK2β, 1 μM compound) [%] | %-inhibition of PLK1 [2] [%] | %-inhibition of PIK3CA/PIK3R1 [3] [%] | %-inhibition of CLK3 ([4]; kinase CLK3, compound at 1 μM) [%] | %-inhibition of MER ([5]; kinase MER, compound at 1 μM) [%] | %-inhibition, CDK3/CycE1 [6, 16] [%] | %-inhibition of PAK2 [7] [%] | %-inhibition of HIPK3 [8] [%] | %-inhibition of FGFR3(K650M) [9] [%] | %-inhibition of MAP2K2 [10, 17] [%] | %-inhibition of LCK [11] [%] | %-inhibition of NEK6 ([12]; kinase NEK6, 1 μM) [%] | %-inhibition of DCAMKL2 [13, 18] [%] | %-inhibition of FGFR4(V550L) [14] [%] | %-inhibition of FES [15] [%] | also measured
1 | CO[C@H]1C[C@@H]2CC[C@@H](C)[C@@](O)(O2)C(=O)C(=O)N2CCCC[C@H]2C(=O)O[C@H]([C@H](C)C[C@@H]2CC[C@@H](OCCO)[C@H](OC)C2)CC(=O)[C@H](C)/C=C(\C)[C@@H](O)[C@@H](OC)C(=O)[C@H](C)C[C@H](C)/C=C/C=C/C=C/1C [everolimus] | -10 | 0.059 | 22 | -9 | -4.24 | -4.51 | -8 | -8 | 2.71 | 11 | -2.67 | -6.38 | -5.64 | -10 | -2.38 | –
2 | CC(=O)Nc1cccc(-n2c(=O)n(C3CC3)c(=O)c3c(Nc4ccc(I)cc4F)n(C)c(=O)c(C)c32)c1 [trametinib] | 0.738 | -9 | 0.26 | -0.0684 | -6.62 | 0.16 | -9 | 0.0849 | -0.169 | – | -7 | -0.324 | -2.4 | -0.155 | -1.55 | –
3 | N#CC[C@H](C1CCCC1)n1cc(-c2ncnc3[nH]ccc23)cn1 [ruxolitinib] | – | 25 | 42 | – | – | -9.52 | 3.37 | 2 | 16 | 12 | 21 | -6 | – | 16 | 3 | %-inhibition, CaMK2β ([1]; 1 µM): 22%; %-inhibition of CLK3 ([4]; 1 µM): -2.14%; %-inhibition of MER ([5]; 1 µM): -0.749%; %-inhibition of DCAMKL2 ([13]; 1 µM): 64%
4 | COc1cc2nccc(Oc3ccc(NC(=O)C4(C(=O)Nc5ccc(F)cc5)CC4)cc3)c2cc1OC [cabozantinib] | -4 | -2 | 48 | -1.24 | 100 | -2.84 | -5.44 | 67 | 10 | 61 | 98 | -3.21 | -2.62 | -1.35 | 39 | –
5 | CC(C)(C)c1nc(-c2cccc(NS(=O)(=O)c3c(F)cccc3F)c2F)c(-c2ccnc(N)n2)s1 [dabrafenib] | -0.277 | -9 | 4.42 | 17 | -0.876 | – | – | 65 | 7 | – | 83 | -3 | 19 | -1.08 | 2.29 | –
6 | C[C@@H](Oc1cc(-c2cnn(C3CCNCC3)c2)cnc1N)c1c(Cl)ccc(F)c1Cl [crizotinib] | – | -3 | – | -5 | – | -5.68 | 5 | -6 | 61 | 13 | – | -2.72 | 49 | 0.45 | – | –
7 | COc1cc(Nc2c(C#N)cnc3cc(OCCCN4CCN(C)CC4)c(OC)cc23)c(Cl)cc1Cl [bosutinib] | – | 5 | 37 | – | – | – | – | -3.66 | – | – | – | – | -2.32 | -7 | – | %-inhibition, CDK3/CycE1 ([6]; 1 µM): 1%; %-inhibition of MAP2K2 ([10]; 1 µM): 96%; %-inhibition of NEK6 ([12]; 1 µM): -6%
